Test results taken from PubChem BioAssay (NCI).
Values joined by “and” are separate entries in the source; they are usually repeats but may differ in a detail not shown here. Equal entries are not always repeated.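 Following 48 hours of exposure in 96-well plates, responses at five concentrations were used to interpolate endpoints linearly. GI50 = concentration required for 50% inhibition of growth. TGI marks complete inhibition of growth.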

Tests used:
Test in all cases: NCI anticancer screen, dose series, 48 h
HOP-62 NSCLC = test system: HOP-62 NSCLC
NCI-H522 lung = test system: NCI-H522 lung
SR leukemia = test system: SR leukemia
IGROV1 ovarian = test system: IGROV1 ovarian
DU-145 prostate = test system: DU-145 prostate
HT29 colon = test system: HT29 colon
A549 NSCLC = test system: A549 NSCLC
HS 578T breast = test system: HS 578T breast
NCI-H23 lung = test system: NCI-H23 lung
SF-539 CNS = test system: SF-539 CNS

Row | SMILES | TGI (HOP-62 NSCLC) | GI50 (NCI-H522 lung) | TGI (NCI-H522 lung) | GI50 (SR leukemia) | GI50 (IGROV1 ovarian) | TGI (IGROV1 ovarian) | GI50 (DU-145 prostate) | GI50 (HT29 colon) | TGI (HT29 colon) | GI50 (A549 NSCLC) | TGI (A549 NSCLC) | GI50 (HS 578T breast) | GI50 (HOP-62 NSCLC) | GI50 (NCI-H23 lung) | TGI (NCI-H23 lung) | TGI (SR leukemia) | TGI (DU-145 prostate) | GI50 (SF-539 CNS) | TGI (SF-539 CNS) | TGI (HS 578T breast)
1 | Cc1c[nH]c2c(O)cc3c(c12)[C@H](CCl)CN3C(=O)c1cc2cc(NC(=O)Nc3ccc4[nH]c(C(=O)N5C[C@@H](CCl)c6c5cc(O)c5[nH]cc(C)c65)cc4c3)ccc2[nH]1 | 18.9 µM and 8.9e-07 µg/mL and 0.000888 µg/mL | 4.49 nM and 8.9e-07 µg/mL | 20.2 nM and 2e-06 µg/mL | 0.000244 µM | 0.0255 µM | 44 µM | 0.000923 µM | 0.00416 ng/mL | > 100 µM and 0.00887 µg/mL | 1.31 nM and 0.000888 µg/mL | 75.5 µM and 0.00228 µg/mL | 0.0252 µM |  |  |  |  |  |  |  | 
2 | CC1=C2[C@@H](CC1)[C@]1(C)O[C@@](C3CCCCC3)(C[C@H]1OC(=O)CO)[C@H]2OC(=O)/C=C/c1ccccc1 | 25.5 µM | 7.71 µM | 22.5 µM | 4.6 µM | 18.7 µM | 44.1 µM | 9.68 µM | 6.1 µM | 16.9 µM | 7.19 µM | 20.5 µM | 0.0202 µM | 12 µM | 8.65 µM | 26.1 µM | 17.9 µM | 23.4 µM | 12.8 µM | 27.7 µM | 0.281 µM
3 | COc1cc(Nc2nccc(Nc3ccc4c(C)[nH]nc4c3)n2)cc(OC)c1OC | 8.34 µM | 1.52 µM | 7.18 µM | 1.42 µM | 0.858 µM | 5.6 µM | 2.44 µM | 0.916 µM | 4.49 µM | 1.26 µM | 5.41 µM | 0.604 µM | 1.08 µM | 2.51 µM | 7.82 µM | > 15.3 µM | 7.43 µM | 1.72 µM | 6.11 µM | 5.15 µM
4 | CC(=O)c1c(C)[nH]c(-c2nc3ccc(N4CCN(C)CC4)cc3[nH]2)c1-c1ccc(OCC2CCOCC2)cc1 | 14.7 µM | 0.548 µM | 13.8 µM | 0.685 µM | 0.854 µM | 12.8 µM | 5.09 µM | 0.302 µM | 20.5 µM | 0.714 µM | 17.8 µM | 0.346 µM | 0.524 µM | 1.32 µM | 18.3 µM | 5.73 µM | 24.8 µM | 1.24 µM | 12.3 µM | 8.71 µM
5 | CCN(CC)CCCC(C)Nc1c2ccc(Cl)cc2nc2ccc(OC)cc12 (stereo unspecified) | 3.98 µM and 8.04 µM |  | 2.97 µM | 1.86 µM | 3.21 µM | 13.2 µM and 5.49 µM | 2.28 µM |  | 3.97 µM and 2.57 µM |  | 3.68 µM and 3.64 µM | 2.46 µM | 1.61 µM |  | 4.11 µM and 3.27 µM | 6 µM and 5.02 µM | 6.37 µM | 1.86 µM | 3.39 µM and 3.3 µM | 8.27 µM and 14.8 µM
6 | COc1cc(/C=C/C(=O)CC(=O)/C=C/c2cc(OC)c(OC)c(OC)c2)cc(OC)c1OC | 27.7 µM | 1.9 µM | 3.78 µM | 2.19 µM | 2.83 µM | 8.22 µM | 6.71 µM | 3.66 µM | 13.6 µM | 5.76 µM | > 100 µM | 3 µM | 4.45 µM | 3.34 µM | 20.2 µM | 9.55 µM | 31.9 µM | 4.85 µM | 71.8 µM | 9.51 µM
7 | CCN(CC)CC(O)CNc1ccc(NCC2CO2)c2c1C(=O)c1ccccc1C2=O (stereo unspecified) | 4.02 µM | 0.958 µM | 2.41 µM | 0.0346 µM | 0.657 µM | 5.79 µM |  | 0.275 µM | 6.87 µM |  | 5.69 µM |  | 0.297 µM | 0.26 µM | 5.2 µM |  | 5.04 µM |  | 3.08 µM | 24.1 µM
8 | CC(=O)Nc1ccc(C(=O)NN2C(=O)C(Cl)C2c2ccc(Cl)cc2)cc1 (stereo unspecified) | 57.8 µM |  | > 100 µM |  |  | > 100 µM |  |  | > 100 µM |  | > 100 µM |  |  |  | > 100 µM | > 100 µM | > 100 µM |  | > 54.2 µM | 41.6 µM
9 | O=c1c(Oc2ccc(F)cc2F)cc2cnc(NC3CCOCC3)nc2n1C1CCS(=O)(=O)CC1 | > 25 µM | > 25 µM | > 25 µM | > 25 µM | > 25 µM | > 25 µM | > 25 µM | > 25 µM | > 25 µM | > 25 µM | > 25 µM | > 25 µM | > 25 µM | > 25 µM | > 25 µM | > 25 µM | > 25 µM | > 25 µM | > 25 µM | > 25 µM
10 | CC(O)c1cccc(NCc2c3ccccc3c(=O)n3c2oc2ccccc23)c1 (stereo unspecified) | 13.6 µM | 5.55 µM | 45.1 µM | 3.39 µM | 1.32 µM | 27 µM | 5.46 µM | 35.6 µM | > 100 µM | 2.33 µM | 24 µM | 4.43 µM | 3.01 µM | 9.41 µM | 26.9 µM | 12.1 µM | > 100 µM | 1.37 µM | 3.43 µM | 57.4 µM
11 | CCN1CCN(C(=O)[C@]23CC[C@@H](C)[C@H](C)[C@@H]2C2=CC[C@@H]4[C@@]5(C)C/C(=C/c6ccncc6)C(=O)C(C)(C)[C@@H]5CC[C@@]4(C)[C@]2(C)CC3)CC1 | 5.75 µM |  |  | 1.89 µM | 1.7 µM | 3.36 µM | 1.87 µM | 1.59 µM | 4.08 µM | 1.78 µM | 3.72 µM | 1.81 µM | 2.37 µM | 1.75 µM | 3.41 µM | 5.29 µM | 3.43 µM | 1.73 µM | 3.11 µM | 4.3 µM
12 | COc1cc(OC)c(/C=C/S(=O)(=O)Cc2cnc(OC)c(N)c2)c(OC)c1 | > 100 µM | < 0.01 µM |  | < 0.0143 µM | < 0.0297 µM | > 100 µM | < 0.0202 µM | < 0.0185 µM |  | < 0.0263 µM | > 100 µM | < 0.0202 µM | < 0.0185 µM | < 0.0262 µM | > 100 µM | > 100 µM | > 100 µM |  |  | > 100 µM
13 | CN1CCN(CCCN)CC1 | > 100 µM |  | > 100 µM |  |  | > 100 µM |  |  | > 100 µM |  | > 100 µM |  |  |  | > 100 µM | > 100 µM | > 100 µM |  |  | > 100 µM
